Assay results reported in patent publication US9902733B2, “Furopyridines as inhibitors of protein kinases” (MASARYKOVA UNIVERZITA, priority 2014, dated 2018).

Columns and labels:
Assay type in all cases: biochemical
CLK4 (h) = target: T1, CLK4 (h) (Homo sapiens, UniProt Q9HAZ1); assay: CLK4 KinaseProfiler radiometric protein kinase assay; conditions: 15 μM ATP, 40 minutes at room temperature
T1 construct: purchased Merck Millipore (KinaseProfiler service)
Procedure: (§1) In vitro essays were performed by the company Merck Millipore in their KinaseProfiler radiometric protein kinase assay as paid commercial service. The compounds IC50 values for inhibition of individual protein kinases were determined. Dose-response curves were plotted from inhibition data generated, each in duplicate, from 10 point serial dilutions of inhibitory compounds. Concentration of compound was plotted against % kinase activity. To generate IC50 values, the dose-response curves were fitted to a standard sigmoidal curve and IC50 values were derived by standard nonlinear regression analysis.
(§2) All tested compounds were prepared in 100% DMSO to final assay concentrations either 0.5 mM (for the concentration row A, see below) or 0.05 mM (for the concentration row B). This working stock of the compound was added to the assay well as the first component in the reaction, followed by the remaining components as detailed below. The stock solution was added to the individual assay wells in such amounts that the concentrations of the compound were either in the row A (0.001 μM, 0.003 μM, 0.01 μM, 0.03 μM, 0.1 μM, 0.3 μM, 1.0 μM, 3.0 μM, and 10.0 μM) or in the row B (0.0001 μM, 0.0003 μM, 0.001 μM, 0.003 μM, 0.01 μM, 0.03 μM, 0.1 μM, 0.3 μM, and 1.0 μM). There was no pre-incubation step between the compound and the kinase prior to initiation of the reaction.
(§3) The positive control wells contained all components of the reaction, except the compound of interest; however, DMSO (at a final concentration of 2%) was included in these wells to control for solvent effects. The blank wells contained all components of the reaction, with staurosporine as a reference inhibitor replacing the compound of interest. This abolished kinase activity and established the base-line (0% kinase activity remaining).
CLK4 (h) was diluted in the buffer (20 mM MOPS, 1 mM EDTA, 0.01% Brij-35, 5% Glycerol, 0.1% β-mercaptoethanol, 1 mg/mL BSAs) to the concentration of 1.01 mg/mL prior to addition to the reaction mix.
The above stock solution of CLK4(h) was added to a mixture containing 8 mM MOPS pH 7.0, 0.2 mM EDTA, and 200 μM […](p) EDEEE in such amount that the resulting concentration of CLK4(h) was 140.8 nM. This mixture was added to the stock solution of the tested compound. The reaction was initiated by the addition of the MgATP mix in such amount that the resulting concentration of Mg acetate in the reaction mixture was 10 mM and [γ-^33P-ATP] (specific activity approx. 500 cpm/pmol) was 15 μM. After incubation for 40 minutes at room temperature, the reaction was stopped by the addition of 3% phosphoric acid solution. 10 μL of the reaction was then spotted onto a P30 filtermat and washed three times for 5 minutes in 75 mM phosphoric acid and once in methanol prior to drying and scintillation counting.

HIPK1(h) = target: T2, HIPK1(h) (Homo sapiens, UniProt Q86Z02); assay: HIPK1 KinaseProfiler radiometric protein kinase assay; conditions: 45 μM ATP, 40 minutes at room temperature
T2 construct: purchased Merck Millipore (KinaseProfiler service)
T2 sequence (Q86Z02 whole entry): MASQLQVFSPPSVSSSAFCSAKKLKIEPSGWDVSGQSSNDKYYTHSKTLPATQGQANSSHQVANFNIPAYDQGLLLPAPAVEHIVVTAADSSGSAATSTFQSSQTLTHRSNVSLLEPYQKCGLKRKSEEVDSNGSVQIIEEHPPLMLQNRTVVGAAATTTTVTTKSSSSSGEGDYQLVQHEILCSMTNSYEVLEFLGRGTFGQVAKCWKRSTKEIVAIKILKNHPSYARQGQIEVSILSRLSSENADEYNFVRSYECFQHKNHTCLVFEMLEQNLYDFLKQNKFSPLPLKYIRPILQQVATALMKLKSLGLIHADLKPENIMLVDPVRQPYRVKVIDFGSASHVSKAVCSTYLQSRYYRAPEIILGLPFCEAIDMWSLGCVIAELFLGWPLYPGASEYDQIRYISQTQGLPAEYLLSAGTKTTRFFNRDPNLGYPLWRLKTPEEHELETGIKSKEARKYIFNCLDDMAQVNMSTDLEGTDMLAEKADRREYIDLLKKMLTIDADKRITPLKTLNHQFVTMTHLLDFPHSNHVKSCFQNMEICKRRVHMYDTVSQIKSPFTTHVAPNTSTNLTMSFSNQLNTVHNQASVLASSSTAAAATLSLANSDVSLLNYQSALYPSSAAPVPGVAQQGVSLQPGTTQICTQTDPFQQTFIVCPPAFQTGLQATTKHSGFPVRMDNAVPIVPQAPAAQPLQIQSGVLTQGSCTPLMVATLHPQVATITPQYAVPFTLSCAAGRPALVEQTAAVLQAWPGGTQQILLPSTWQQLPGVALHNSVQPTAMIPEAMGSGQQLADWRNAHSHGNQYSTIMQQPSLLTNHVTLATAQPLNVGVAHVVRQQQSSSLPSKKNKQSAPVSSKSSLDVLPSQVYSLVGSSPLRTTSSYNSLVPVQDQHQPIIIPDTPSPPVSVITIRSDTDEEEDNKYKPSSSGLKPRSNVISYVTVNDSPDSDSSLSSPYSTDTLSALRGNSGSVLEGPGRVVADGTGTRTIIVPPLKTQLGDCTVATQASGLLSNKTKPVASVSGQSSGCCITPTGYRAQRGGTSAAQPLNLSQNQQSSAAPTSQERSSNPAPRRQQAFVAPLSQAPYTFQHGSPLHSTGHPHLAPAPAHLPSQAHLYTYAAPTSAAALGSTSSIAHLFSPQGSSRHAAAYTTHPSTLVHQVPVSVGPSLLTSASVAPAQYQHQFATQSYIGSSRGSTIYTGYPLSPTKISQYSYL
Procedure: as §1, §2, §3
HIPK1(h) was diluted in the buffer (20 mM MOPS, 1 mM EDTA, 0.01% Brij-35, 5% Glycerol, 0.1% β-mercaptoethanol, 1 mg/mL BSAs) to the concentration of 1.01 mg/mL prior to addition to the reaction mix.
(§4) The above stock solution of HIPK1(h) was added to a mixture containing 8 mM MOPS pH 7.0, 0.2 mM EDTA, and 0.33 mg/mL myelin basic protein in such amount that the resulting concentration of HIPK1(h) was 4.7 nM. This mixture was added to the stock solution of the tested compound. The reaction was initiated by the addition of the MgATP mix in such amount that the resulting concentration of Mg acetate in the reaction mixture was 10 mM and [γ-^33P-ATP] (specific activity approx. 500 cpm/pmol) was 45 μM. After incubation for 40 minutes at room temperature, the reaction was stopped by the addition of 3% phosphoric acid solution. 10 μL of the reaction was then spotted onto a P30 filtermat and washed three times for 5 minutes in 75 mM phosphoric acid and once in methanol prior to drying and scintillation counting.

HIPK3(h) = target: T3, HIPK3(h) (Homo sapiens, UniProt Q9H422); assay: HIPK3 KinaseProfiler radiometric protein kinase assay; conditions: 15 μM ATP, 40 minutes at room temperature
T3 construct: purchased Merck Millipore (KinaseProfiler service)
T3 sequence (Q9H422 whole entry): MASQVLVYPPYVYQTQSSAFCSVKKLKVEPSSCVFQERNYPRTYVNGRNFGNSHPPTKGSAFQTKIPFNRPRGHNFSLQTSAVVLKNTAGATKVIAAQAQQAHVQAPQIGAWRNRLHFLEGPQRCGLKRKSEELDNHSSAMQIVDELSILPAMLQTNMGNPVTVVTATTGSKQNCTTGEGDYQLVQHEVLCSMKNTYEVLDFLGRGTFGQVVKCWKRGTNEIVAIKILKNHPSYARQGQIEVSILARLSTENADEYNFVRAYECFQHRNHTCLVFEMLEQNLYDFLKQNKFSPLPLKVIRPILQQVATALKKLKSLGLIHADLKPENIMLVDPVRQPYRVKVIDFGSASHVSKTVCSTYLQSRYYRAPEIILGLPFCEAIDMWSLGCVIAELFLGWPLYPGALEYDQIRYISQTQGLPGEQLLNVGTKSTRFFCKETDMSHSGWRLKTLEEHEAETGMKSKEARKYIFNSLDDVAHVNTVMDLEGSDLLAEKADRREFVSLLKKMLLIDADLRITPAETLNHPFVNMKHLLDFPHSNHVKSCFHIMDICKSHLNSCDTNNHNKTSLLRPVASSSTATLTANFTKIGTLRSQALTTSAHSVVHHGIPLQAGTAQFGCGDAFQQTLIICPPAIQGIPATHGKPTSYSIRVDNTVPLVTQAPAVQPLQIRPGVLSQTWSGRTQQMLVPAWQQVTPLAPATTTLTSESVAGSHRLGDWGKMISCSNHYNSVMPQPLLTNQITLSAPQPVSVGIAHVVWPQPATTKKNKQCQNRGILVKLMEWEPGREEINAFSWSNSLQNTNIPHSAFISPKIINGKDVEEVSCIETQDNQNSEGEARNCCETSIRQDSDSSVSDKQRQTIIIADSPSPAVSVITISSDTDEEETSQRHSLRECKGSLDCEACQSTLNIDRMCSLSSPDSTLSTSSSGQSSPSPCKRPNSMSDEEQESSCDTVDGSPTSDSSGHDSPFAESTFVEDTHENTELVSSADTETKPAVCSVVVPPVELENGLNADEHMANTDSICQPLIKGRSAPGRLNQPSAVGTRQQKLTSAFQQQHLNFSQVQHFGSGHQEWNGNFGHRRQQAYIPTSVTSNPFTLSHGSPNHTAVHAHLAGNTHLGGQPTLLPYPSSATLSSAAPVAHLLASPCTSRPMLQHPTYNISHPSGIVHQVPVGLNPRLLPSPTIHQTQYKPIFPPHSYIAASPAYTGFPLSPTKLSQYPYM
Procedure: as §1, §2, §3
HIPK3(h) was diluted in the buffer (20 mM MOPS, 1 mM EDTA, 0.01% Brij-35, 5% Glycerol, 0.1% β-mercaptoethanol, 1 mg/mL BSAs) to the concentration of 1.01 mg/mL prior to addition to the reaction mix.
as §4, with “HIPK3(h)” for “HIPK1(h)”, “1.0” for “0.33”, “6.4” for “4.7”, “15” for “45”, “10 μL of the reaction was then spotted onto a P30 filtermat and washed three times for 5 minutes in 75 mM phosphoric acid and once in methanol prior to drying and scintillation counting.” left out

DYRK2 = target: T4, DYRK2 (Homo sapiens, UniProt Q92630); assay: DYRK2 KinaseProfiler radiometric protein kinase assay
T4 construct: purchased Merck Millipore (KinaseProfiler service)
T4 sequence (Q92630 1-601): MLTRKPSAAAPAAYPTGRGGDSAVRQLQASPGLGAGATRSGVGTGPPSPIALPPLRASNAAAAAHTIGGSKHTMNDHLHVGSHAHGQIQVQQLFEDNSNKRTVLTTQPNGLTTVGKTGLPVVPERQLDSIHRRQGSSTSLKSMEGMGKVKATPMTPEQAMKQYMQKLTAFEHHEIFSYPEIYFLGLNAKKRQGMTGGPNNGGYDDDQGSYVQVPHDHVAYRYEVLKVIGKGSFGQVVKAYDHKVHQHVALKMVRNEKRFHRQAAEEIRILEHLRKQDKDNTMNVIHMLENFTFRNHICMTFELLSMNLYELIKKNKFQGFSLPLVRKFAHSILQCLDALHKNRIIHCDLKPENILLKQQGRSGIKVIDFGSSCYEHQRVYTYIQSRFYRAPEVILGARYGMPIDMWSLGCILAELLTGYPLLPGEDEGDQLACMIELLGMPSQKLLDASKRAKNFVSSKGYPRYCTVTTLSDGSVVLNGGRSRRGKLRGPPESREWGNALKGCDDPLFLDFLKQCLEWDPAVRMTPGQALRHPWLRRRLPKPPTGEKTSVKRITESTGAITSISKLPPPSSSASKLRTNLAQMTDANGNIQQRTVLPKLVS
Procedure: as §1, §2, §3

T1 sequence (Q9HAZ1 whole entry): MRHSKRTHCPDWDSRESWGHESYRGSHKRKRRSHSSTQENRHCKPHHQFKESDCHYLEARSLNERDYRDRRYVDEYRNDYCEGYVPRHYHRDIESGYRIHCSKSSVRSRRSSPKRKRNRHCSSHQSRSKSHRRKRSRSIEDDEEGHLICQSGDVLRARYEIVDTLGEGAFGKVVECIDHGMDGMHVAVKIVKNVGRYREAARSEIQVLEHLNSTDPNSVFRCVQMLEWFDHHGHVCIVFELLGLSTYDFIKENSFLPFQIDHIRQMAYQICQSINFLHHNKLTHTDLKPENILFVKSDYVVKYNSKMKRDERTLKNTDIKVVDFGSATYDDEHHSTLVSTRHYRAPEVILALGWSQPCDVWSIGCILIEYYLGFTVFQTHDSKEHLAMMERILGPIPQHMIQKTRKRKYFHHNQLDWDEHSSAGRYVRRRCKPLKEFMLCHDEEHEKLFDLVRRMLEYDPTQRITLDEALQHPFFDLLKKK

IC50 (CLK4 (h)) | IC50 (HIPK1(h)) | IC50 (HIPK3(h)) | IC50 (DYRK2) | Compound
< 100 nM | < 1000 nM | < 5000 nM | < 5000 nM | Cn1cc(-c2ccc3occ(-c4ccccc4)c3n2)cn1 [Preparative Example 6A]
< 100 nM | < 100 nM | < 1000 nM | < 5000 nM | c1ccc(-c2coc3ccc(-c4cn[nH]c4)nc23)cc1 [Preparative Example 9]
